Measurements reported in article PMC5390315 (Scientific Reports, 2017).

Tested on: SEM cells
Experiment: Antiproliferative MTT assay, SEM
Type: cell-based, human
Conditions: Homo sapiens, 72 h, mean ± SE
Procedure: (§1) Human T-cell leukemia (Jurkat) and human B-cell leukemia (SEM and RS4;11) cells were grown in RPMI-1640 medium (Gibco, Milano, Italy). Breast adenocarcinoma (MCF-7), human cervix carcinoma (HeLa), human lung adenocarcinoma (A549) and human colon adenocarcinoma (HT-29) cells were grown in DMEM medium (Gibco, Milano, Italy), all supplemented with 115 units/mL penicillin G (Gibco, Milano, Italy), 115 μg/mL streptomycin (Invitrogen, Milano, Italy), and 10% fetal bovine serum (FBS; Invitrogen, Milano, Italy). Stock solutions (10 mM) of the different compounds were obtained by dissolving them in DMSO. Individual wells of a 96-well tissue culture microtiter plate were inoculated with 100 μL of complete medium containing 8 × 10^3 cells. The plates were incubated at 37 °C in a humidified 5% CO2 incubator for 18 h prior to the experiments. After medium removal, 100 μL of fresh medium containing the test compound at different concentrations was added to each well in triplicate and incubated at 37 °C for 72 h. The percentage of DMSO in the medium never exceeded 0.25%. This was also the maximum DMSO concentration in all cell-based assays described below.

SMILES | IC50 [nM]
COc1ccc(-c2oc(C)nc2-c2cc(OC)c(OC)c(OC)c2)cc1Cl [Compound 4h, 5-(3-Chloro-4-methoxyphenyl)-4-(3,4,5-trimethoxyphenyl)-2-methyloxazole] | 233 ± 34.6
COc1ccc(-c2oc(C)nc2-c2cc(OC)c(OC)c(OC)c2)cc1F [Compound 4g, 5-(3-Fluoro-4-methoxyphenyl)-4-(3,4,5-trimethoxyphenyl)-2-methyloxazole] | 3.9 ± 0.8
COc1cc(-c2oc(C)nc2-c2ccc(Cl)cc2)cc(OC)c1OC [Compound 5c, 4-(4-Chlorophenyl)-5-(3,4,5-trimethoxyphenyl)-2-methyloxazole] | 6570 ± 500
COc1cc(-c2oc(C)nc2-c2ccc(C)cc2)cc(OC)c1OC [Compound 5d, 5-(3,4,5-Trimethoxyphenyl)-2-methyl-4-p-tolyloxazole] | 352 ± 77.8
CCOc1ccc(-c2oc(C)nc2-c2cc(OC)c(OC)c(OC)c2)cc1Cl [Compound 4j, 5-(3-Chloro-4-ethoxyphenyl)-4-(3,4,5-trimethoxyphenyl)-2-methyloxazole] | 51 ± 13.5

Tested on: Jurkat
Experiment: Antiproliferative MTT assay, Jurkat
Type: cell-based, human
Conditions: Homo sapiens, Jurkat, 72 h, mean ± SE
Procedure: as §1

SMILES | IC50 [nM]
COc1ccc(-c2oc(C)nc2-c2cc(OC)c(OC)c(OC)c2)cc1Cl [Compound 4h, 5-(3-Chloro-4-methoxyphenyl)-4-(3,4,5-trimethoxyphenyl)-2-methyloxazole] | 512 ± 92.7
COc1ccc(-c2oc(C)nc2-c2cc(OC)c(OC)c(OC)c2)cc1F [Compound 4g, 5-(3-Fluoro-4-methoxyphenyl)-4-(3,4,5-trimethoxyphenyl)-2-methyloxazole] | 4.6 ± 1
COc1cc(-c2oc(C)nc2-c2ccc(Cl)cc2)cc(OC)c1OC [Compound 5c, 4-(4-Chlorophenyl)-5-(3,4,5-trimethoxyphenyl)-2-methyloxazole] | 5250 ± 0.934
COc1cc(-c2oc(C)nc2-c2ccc(C)cc2)cc(OC)c1OC [Compound 5d, 5-(3,4,5-Trimethoxyphenyl)-2-methyl-4-p-tolyloxazole] | 922 ± 76.6
CCOc1ccc(-c2oc(C)nc2-c2cc(OC)c(OC)c(OC)c2)cc1Cl [Compound 4j, 5-(3-Chloro-4-ethoxyphenyl)-4-(3,4,5-trimethoxyphenyl)-2-methyloxazole] | 77.7 ± 6.1

Tested on: not given
Experiment: not given
Conditions: not given

SMILES | melting point [°C]
COc1ccc(-c2oc(C)nc2-c2cc(OC)c(OC)c(OC)c2)cc1Cl [Compound 4h, 5-(3-Chloro-4-methoxyphenyl)-4-(3,4,5-trimethoxyphenyl)-2-methyloxazole] | 150 to 152
COc1ccc(-c2oc(C)nc2-c2cc(OC)c(OC)c(OC)c2)cc1F [Compound 4g, 5-(3-Fluoro-4-methoxyphenyl)-4-(3,4,5-trimethoxyphenyl)-2-methyloxazole] | 127 to 129
COc1cc(-c2oc(C)nc2-c2ccc(Cl)cc2)cc(OC)c1OC [Compound 5c, 4-(4-Chlorophenyl)-5-(3,4,5-trimethoxyphenyl)-2-methyloxazole] | 149 to 151
COc1cc(-c2oc(C)nc2-c2ccc(C)cc2)cc(OC)c1OC [Compound 5d, 5-(3,4,5-Trimethoxyphenyl)-2-methyl-4-p-tolyloxazole] | 128 to 129
CCOc1ccc(-c2oc(C)nc2-c2cc(OC)c(OC)c(OC)c2)cc1Cl [Compound 4j, 5-(3-Chloro-4-ethoxyphenyl)-4-(3,4,5-trimethoxyphenyl)-2-methyloxazole] | 124 to 126

Tested on: HT-29
Experiment: Antiproliferative MTT assay, HT-29
Type: cell-based, human
Conditions: Homo sapiens, HT-29, 72 h, mean ± SE
Procedure: as §1

SMILES | IC50 [nM]
COc1ccc(-c2oc(C)nc2-c2cc(OC)c(OC)c(OC)c2)cc1Cl [Compound 4h, 5-(3-Chloro-4-methoxyphenyl)-4-(3,4,5-trimethoxyphenyl)-2-methyloxazole] | 207 ± 93
COc1ccc(-c2oc(C)nc2-c2cc(OC)c(OC)c(OC)c2)cc1F [Compound 4g, 5-(3-Fluoro-4-methoxyphenyl)-4-(3,4,5-trimethoxyphenyl)-2-methyloxazole] | 3.3 ± 1.1
COc1cc(-c2oc(C)nc2-c2ccc(Cl)cc2)cc(OC)c1OC [Compound 5c, 4-(4-Chlorophenyl)-5-(3,4,5-trimethoxyphenyl)-2-methyloxazole] | > 10000
COc1cc(-c2oc(C)nc2-c2ccc(C)cc2)cc(OC)c1OC [Compound 5d, 5-(3,4,5-Trimethoxyphenyl)-2-methyl-4-p-tolyloxazole] | 523 ± 61.8
CCOc1ccc(-c2oc(C)nc2-c2cc(OC)c(OC)c(OC)c2)cc1Cl [Compound 4j, 5-(3-Chloro-4-ethoxyphenyl)-4-(3,4,5-trimethoxyphenyl)-2-methyloxazole] | 0.9 ± 0.5

Tested on: MCF-7
Experiment: Antiproliferative MTT assay, MCF-7
Type: cell-based, human
Conditions: Homo sapiens, MCF7, 72 h, mean ± SE
Procedure: as §1

SMILES | IC50 [nM]
COc1ccc(-c2oc(C)nc2-c2cc(OC)c(OC)c(OC)c2)cc1Cl [Compound 4h, 5-(3-Chloro-4-methoxyphenyl)-4-(3,4,5-trimethoxyphenyl)-2-methyloxazole] | 144 ± 64.3
COc1ccc(-c2oc(C)nc2-c2cc(OC)c(OC)c(OC)c2)cc1F [Compound 4g, 5-(3-Fluoro-4-methoxyphenyl)-4-(3,4,5-trimethoxyphenyl)-2-methyloxazole] | 2.5 ± 0.7
COc1cc(-c2oc(C)nc2-c2ccc(Cl)cc2)cc(OC)c1OC [Compound 5c, 4-(4-Chlorophenyl)-5-(3,4,5-trimethoxyphenyl)-2-methyloxazole] | > 10000
COc1cc(-c2oc(C)nc2-c2ccc(C)cc2)cc(OC)c1OC [Compound 5d, 5-(3,4,5-Trimethoxyphenyl)-2-methyl-4-p-tolyloxazole] | 360 ± 52.6
CCOc1ccc(-c2oc(C)nc2-c2cc(OC)c(OC)c(OC)c2)cc1Cl [Compound 4j, 5-(3-Chloro-4-ethoxyphenyl)-4-(3,4,5-trimethoxyphenyl)-2-methyloxazole] | 1.5 ± 0.6

Tested on: HeLa
Experiment: Antiproliferative MTT assay, HeLa
Type: cell-based, human
Conditions: Homo sapiens, HeLa, 72 h, mean ± SE
Procedure: as §1

SMILES | IC50 [nM]
COc1ccc(-c2oc(C)nc2-c2cc(OC)c(OC)c(OC)c2)cc1Cl [Compound 4h, 5-(3-Chloro-4-methoxyphenyl)-4-(3,4,5-trimethoxyphenyl)-2-methyloxazole] | 169 ± 75.5
COc1ccc(-c2oc(C)nc2-c2cc(OC)c(OC)c(OC)c2)cc1F [Compound 4g, 5-(3-Fluoro-4-methoxyphenyl)-4-(3,4,5-trimethoxyphenyl)-2-methyloxazole] | 2.4 ± 0.6
COc1cc(-c2oc(C)nc2-c2ccc(Cl)cc2)cc(OC)c1OC [Compound 5c, 4-(4-Chlorophenyl)-5-(3,4,5-trimethoxyphenyl)-2-methyloxazole] | 2560 ± 475
COc1cc(-c2oc(C)nc2-c2ccc(C)cc2)cc(OC)c1OC [Compound 5d, 5-(3,4,5-Trimethoxyphenyl)-2-methyl-4-p-tolyloxazole] | 148 ± 55.3
CCOc1ccc(-c2oc(C)nc2-c2cc(OC)c(OC)c(OC)c2)cc1Cl [Compound 4j, 5-(3-Chloro-4-ethoxyphenyl)-4-(3,4,5-trimethoxyphenyl)-2-methyloxazole] | 4.2 ± 1.3

Tested on: panel of seven human tumor cell lines
Experiment: Antiproliferative activity, range over panel of seven human tumor cell lines
Type: cell-based
Conditions: Homo sapiens, read-out: IC50 values, range over the cell line panel
Procedure: as §1

SMILES | IC50 [nM]
COc1ccc(-c2oc(C)nc2-c2cc(OC)c(OC)c(OC)c2)cc1F [Compound 4g, 5-(3-Fluoro-4-methoxyphenyl)-4-(3,4,5-trimethoxyphenyl)-2-methyloxazole] | 0.35 to 4.6

Tested on: tubulin
Experiment: Inhibition of [3H]colchicine binding to tubulin
Conditions: 1 μM drug; tubulin 1 μM, [3H]colchicine 5 μM
Procedure: (§2) To evaluate the effect of the compounds on tubulin assembly in vitro[41], varying concentrations of compounds were preincubated with 10 μM bovine brain tubulin in 0.8 M monosodium glutamate (pH adjusted to 6.6 with HCl in a 2.0 M stock solution) at 30 °C and then cooled to 0 °C. After addition of 0.4 mM GTP, the mixtures were transferred to 0 °C cuvettes in a recording spectrophotometer and warmed to 30 °C. Tubulin assembly was followed turbidimetrically at 350 nm. […] The capacity of the test compounds to inhibit colchicine binding to tubulin was measured as described, except that the reaction mixtures contained 1 μM tubulin, 5 μM [^3H]colchicine and 1 or 5 μM test compound.

SMILES | Colchicine binding % inhibition ± S.D, 1 μM drug [%]
COc1ccc(-c2oc(C)nc2-c2cc(OC)c(OC)c(OC)c2)cc1F [Compound 4g, 5-(3-Fluoro-4-methoxyphenyl)-4-(3,4,5-trimethoxyphenyl)-2-methyloxazole] | 51 ± 1

Same assay, conditions: 5 μM drug; tubulin 1 μM, [3H]colchicine 5 μM

SMILES | Colchicine binding % inhibition ± S.D, 5 μM drug [%]
COc1ccc(-c2oc(C)nc2-c2cc(OC)c(OC)c(OC)c2)cc1F [Compound 4g, 5-(3-Fluoro-4-methoxyphenyl)-4-(3,4,5-trimethoxyphenyl)-2-methyloxazole] | 78 ± 0.5
CCOc1ccc(-c2oc(C)nc2-c2cc(OC)c(OC)c(OC)c2)cc1Cl [Compound 4j, 5-(3-Chloro-4-ethoxyphenyl)-4-(3,4,5-trimethoxyphenyl)-2-methyloxazole] | 53 ± 3

Tested on: A549
Experiment: Antiproliferative MTT assay, A549
Type: cell-based, human
Conditions: Homo sapiens, A549, 72 h, mean ± SE
Procedure: as §1

SMILES | IC50 [nM]
COc1ccc(-c2oc(C)nc2-c2cc(OC)c(OC)c(OC)c2)cc1Cl [Compound 4h, 5-(3-Chloro-4-methoxyphenyl)-4-(3,4,5-trimethoxyphenyl)-2-methyloxazole] | 138 ± 13.7
COc1ccc(-c2oc(C)nc2-c2cc(OC)c(OC)c(OC)c2)cc1F [Compound 4g, 5-(3-Fluoro-4-methoxyphenyl)-4-(3,4,5-trimethoxyphenyl)-2-methyloxazole] | 0.65 ± 0.08
COc1cc(-c2oc(C)nc2-c2ccc(Cl)cc2)cc(OC)c1OC [Compound 5c, 4-(4-Chlorophenyl)-5-(3,4,5-trimethoxyphenyl)-2-methyloxazole] | > 10000
COc1cc(-c2oc(C)nc2-c2ccc(C)cc2)cc(OC)c1OC [Compound 5d, 5-(3,4,5-Trimethoxyphenyl)-2-methyl-4-p-tolyloxazole] | 2580 ± 289
CCOc1ccc(-c2oc(C)nc2-c2cc(OC)c(OC)c(OC)c2)cc1Cl [Compound 4j, 5-(3-Chloro-4-ethoxyphenyl)-4-(3,4,5-trimethoxyphenyl)-2-methyloxazole] | 20.3 ± 11.4

Tested on: RS 4;11
Experiment: Antiproliferative MTT assay, RS 4;11
Type: cell-based, human
Conditions: Homo sapiens, RS4-11, 72 h, mean ± SE
Procedure: as §1

SMILES | IC50 [nM]
COc1ccc(-c2oc(C)nc2-c2cc(OC)c(OC)c(OC)c2)cc1Cl [Compound 4h, 5-(3-Chloro-4-methoxyphenyl)-4-(3,4,5-trimethoxyphenyl)-2-methyloxazole] | 47 ± 13.9
COc1ccc(-c2oc(C)nc2-c2cc(OC)c(OC)c(OC)c2)cc1F [Compound 4g, 5-(3-Fluoro-4-methoxyphenyl)-4-(3,4,5-trimethoxyphenyl)-2-methyloxazole] | 0.35 ± 0.15
COc1cc(-c2oc(C)nc2-c2ccc(Cl)cc2)cc(OC)c1OC [Compound 5c, 4-(4-Chlorophenyl)-5-(3,4,5-trimethoxyphenyl)-2-methyloxazole] | 815 ± 406
COc1cc(-c2oc(C)nc2-c2ccc(C)cc2)cc(OC)c1OC [Compound 5d, 5-(3,4,5-Trimethoxyphenyl)-2-methyl-4-p-tolyloxazole] | 635 ± 387
CCOc1ccc(-c2oc(C)nc2-c2cc(OC)c(OC)c(OC)c2)cc1Cl [Compound 4j, 5-(3-Chloro-4-ethoxyphenyl)-4-(3,4,5-trimethoxyphenyl)-2-methyloxazole] | 20.2 ± 5.4

Tested on: bovine brain tubulin
Experiment: Inhibition of tubulin polymerization
Type: biochemical
Conditions: tubulin at 10 μM; read-out: Tubulin assembly IC50 ± S.D
Procedure: as §2

SMILES | IC50 [nM]
COc1ccc(-c2oc(C)nc2-c2cc(OC)c(OC)c(OC)c2)cc1F [Compound 4g, 5-(3-Fluoro-4-methoxyphenyl)-4-(3,4,5-trimethoxyphenyl)-2-methyloxazole] | 1200
CCOc1ccc(-c2oc(C)nc2-c2cc(OC)c(OC)c(OC)c2)cc1Cl [Compound 4j, 5-(3-Chloro-4-ethoxyphenyl)-4-(3,4,5-trimethoxyphenyl)-2-methyloxazole] | 1800 ± 100
